Assay: xn = mol fraction of the nth substance listed
Details: Liquid, Vibrating tube method

CCCCCCCC [octane] + CCCCCC
Details	mass density [kg/m3]
362.88 K, 4000 kPa, x2 = 0.1654	644.35
362.88 K, 4000 kPa, x2 = 0.2199	642.17
362.88 K, 5000 kPa, x2 = 0.1654	645.69
362.88 K, 5000 kPa, x2 = 0.2199	643.54
362.88 K, 6000 kPa, x2 = 0.1654	647.04
362.88 K, 6000 kPa, x2 = 0.2199	644.88
362.88 K, 7000 kPa, x2 = 0.1654	648.35
362.88 K, 7000 kPa, x2 = 0.2199	646.21
362.88 K, 8000 kPa, x2 = 0.1654	649.64
362.88 K, 8000 kPa, x2 = 0.2199	647.53
362.88 K, 9000 kPa, x2 = 0.1654	650.92
362.88 K, 9000 kPa, x2 = 0.2199	648.82
362.88 K, 10000 kPa, x2 = 0.1654	652.16
362.88 K, 10000 kPa, x2 = 0.2199	650.09
362.88 K, 11000 kPa, x2 = 0.1654	653.43
362.88 K, 11000 kPa, x2 = 0.2199	651.35
362.88 K, 12000 kPa, x2 = 0.1654	654.65
362.88 K, 12000 kPa, x2 = 0.2199	652.59
362.88 K, 13000 kPa, x2 = 0.1654	655.84
362.88 K, 13000 kPa, x2 = 0.2199	653.81
362.88 K, 14000 kPa, x2 = 0.1654	657.01
362.88 K, 14000 kPa, x2 = 0.2199	654.99
362.88 K, 15000 kPa, x2 = 0.1654	658.17
362.88 K, 15000 kPa, x2 = 0.2199	656.16
362.88 K, 16000 kPa, x2 = 0.1654	659.3
362.88 K, 16000 kPa, x2 = 0.2199	657.29
362.88 K, 17000 kPa, x2 = 0.1654	660.41
362.88 K, 17000 kPa, x2 = 0.2199	658.42
362.88 K, 18000 kPa, x2 = 0.1654	661.5
362.88 K, 18000 kPa, x2 = 0.2199	659.52
362.88 K, 19000 kPa, x2 = 0.1654	662.58
362.88 K, 19000 kPa, x2 = 0.2199	660.6
362.88 K, 20000 kPa, x2 = 0.1654	663.6
362.88 K, 20000 kPa, x2 = 0.2199	661.65
362.88 K, 21000 kPa, x2 = 0.1654	664.63
362.88 K, 21000 kPa, x2 = 0.2199	662.67
362.88 K, 22000 kPa, x2 = 0.1654	665.63
362.88 K, 22000 kPa, x2 = 0.2199	663.67
362.88 K, 23000 kPa, x2 = 0.1654	666.61
362.88 K, 23000 kPa, x2 = 0.2199	664.66
362.88 K, 24000 kPa, x2 = 0.1654	667.57
362.88 K, 24000 kPa, x2 = 0.2199	665.61
362.88 K, 25000 kPa, x2 = 0.1654	668.52
362.88 K, 25000 kPa, x2 = 0.2199	666.56
362.89 K, 1000 kPa, x2 = 0.9308	599.76
362.89 K, 2000 kPa, x2 = 0.9308	601.55
362.89 K, 3000 kPa, x2 = 0.9308	603.31
362.89 K, 4000 kPa, x2 = 0.9308	605.04
362.89 K, 5000 kPa, x2 = 0.9308	606.72
362.89 K, 6000 kPa, x2 = 0.9308	608.38
362.89 K, 7000 kPa, x2 = 0.9308	610.01
362.89 K, 8000 kPa, x2 = 0.9308	611.58
362.89 K, 9000 kPa, x2 = 0.9308	613.16
362.89 K, 10000 kPa, x2 = 0.9308	614.68
362.89 K, 11000 kPa, x2 = 0.9308	616.17
362.89 K, 12000 kPa, x2 = 0.9308	617.64
362.89 K, 13000 kPa, x2 = 0.9308	619.07
362.89 K, 14000 kPa, x2 = 0.9308	620.48
362.89 K, 15000 kPa, x2 = 0.9308	621.85
362.89 K, 16000 kPa, x2 = 0.9308	623.2
362.89 K, 17000 kPa, x2 = 0.9308	624.51
362.89 K, 18000 kPa, x2 = 0.9308	625.8
362.89 K, 19000 kPa, x2 = 0.9308	627.06
362.89 K, 20000 kPa, x2 = 0.9308	628.28
362.89 K, 21000 kPa, x2 = 0.9308	629.48
362.89 K, 22000 kPa, x2 = 0.9308	630.64
362.89 K, 23000 kPa, x2 = 0.9308	631.79
362.89 K, 24000 kPa, x2 = 0.9308	632.9
362.89 K, 25000 kPa, x2 = 0.9308	634.01
362.9 K, 1000 kPa, x2 = 0.7995	608.76
362.9 K, 2000 kPa, x2 = 0.7995	610.47
362.9 K, 3000 kPa, x2 = 0.7995	612.13
362.9 K, 4000 kPa, x2 = 0.7995	613.77
362.9 K, 5000 kPa, x2 = 0.7995	615.41
362.9 K, 6000 kPa, x2 = 0.7995	616.94
362.9 K, 7000 kPa, x2 = 0.7995	618.5
362.9 K, 8000 kPa, x2 = 0.7995	620.01
362.9 K, 9000 kPa, x2 = 0.7995	621.5
362.9 K, 10000 kPa, x2 = 0.7995	622.96
362.9 K, 11000 kPa, x2 = 0.7995	624.39
362.9 K, 12000 kPa, x2 = 0.7995	625.81
362.9 K, 13000 kPa, x2 = 0.7995	627.18
362.9 K, 14000 kPa, x2 = 0.7995	628.53
362.9 K, 15000 kPa, x2 = 0.7995	629.85
362.9 K, 16000 kPa, x2 = 0.7995	631.14
362.9 K, 17000 kPa, x2 = 0.7995	632.42
362.9 K, 18000 kPa, x2 = 0.7995	633.67
362.9 K, 19000 kPa, x2 = 0.7995	634.88
362.9 K, 20000 kPa, x2 = 0.7995	636.08
362.9 K, 21000 kPa, x2 = 0.7995	637.22
362.9 K, 22000 kPa, x2 = 0.7995	638.34
362.9 K, 23000 kPa, x2 = 0.7995	639.44
362.9 K, 24000 kPa, x2 = 0.7995	640.51
362.9 K, 25000 kPa, x2 = 0.7995	641.57
